Assay results taken from patent US6548242B2, “Process for the sterilization of biological compositions and the product thereby” (priority 1990, dated 2003).
Several values for one entry are separate records, joined by “and”; a condition that tells them apart may be missing. Identical values can stand only once. Like-named read-outs stand apart in the source and are kept apart here.

Legend:
[1] = tested on: platelets; test: Platelet aggregation in response to collagen after treatment of platelet concentrate; type: cell-based; conditions: for Aggregation Response % Control / Agqregation Response % control / aggregation response to collagen: platelet conc.; for Aggregation Response % Control / Agqregation Response % control: 25 μg/ml AMT; for aggregation response to collagen: 100 μg/ml AMT, 90 min UVA; for % Untreated Control - Extent of Aggregation Response to Collagen, untreated / % Untreated Control - Rate of Aggregation Response to Collagen, untreated: flavonoid present, no AMT/UVA treatment
[2] = tested on: cell-free vesicular stomatitis virus (VSV); type: cell-based
[3] = tested on: bacteriophage M13; type: cell-based
[4] = tested on: cell-free vesicular stomatitis virus (VSV); conditions: cited from earlier work
[5] = tested on: encephalomyocarditis virus (EMC); type: cell-based
[6] = tested on: cell-associated VSV; type: cell-based, vesicular stomatitis virus
[7] = tested on: RBCCs; test: Extracellular (plasma) potassium of stored RBCCs; conditions: RBCC, 6.5 μM AlPcS4 + 44 J/cm^2 visible light + 4 mM GSH, 2 days
[8] = 25 μg/ml AMT and 90 minutes of UVA, no flavonoid
[9] = 7.5 mW/cm^2 UVA 30 min, quencher 2 mM
[10] = 7.5 mW/cm^2 UVA 30 min, quencher 4 mM
[11] = 7.5 mW/cm^2 UVA 30 min, quencher 10 mM
[12] = 7.5 mW/cm^2 UVA 60 min, quencher 2 mM
[13] = 7.5 mW/cm^2 UVA 60 min, quencher 4 mM
[14] = 7.5 mW/cm^2 UVA 90 min, quencher 2 mM
[15] = 7.5 mW/cm^2 UVA 90 min, quencher 4 mM
[16] = 7.5 mW/cm^2 UVA 30 min, quencher 50 mM
[17] = 7.5 mW/cm^2 UVA 60 min, quencher 10 mM
[18] = 7.5 mW/cm^2 UVA 60 min, quencher 50 mM
[19] = 11 mW/cm^2 UVA 30 min, quencher 10 mM
[20] = 11 mW/cm^2 UVA 30 min, quencher 2 mM
[21] = 11 mW/cm^2 UVA 60 min, quencher 2 mM
[22] = 11 mW/cm^2 UVA 90 min, quencher 2 mM
[23] = 25 μg/ml AMT and 90 minutes of UVA in presence of flavonoid, overnight storage

Molecule: Cc1oc2c(C)c3oc(=O)cc(C)c3cc2c1CN [AMT, 4′-aminomethyl-4,5′,8-trimethylpsoralen]
- % Untreated Control - Extent of Aggregation Response to Collagen, treated [1, 8]: 44 % Untreated Control
- % Untreated Control - Rate of Aggregation Response to Collagen, treated [1, 8]: 24 % Untreated Control
- agg response ([1]; Platelet Conc., 50 μg/ml AMT + 57 J/cm^2 UVA, quencher none): ≤ 30%
- Aggregation Response % Control ([1]; 7.5 mW/cm^2 UVA 60 min, no quencher): 52 % Control
- Aggregation Response % Control ([1]; 7.5 mW/cm^2 UVA 90 min, no quencher): 35 % Control
- Agqregation Response % control ([1]; 11 mW/cm^2 UVA 30 min, no quencher): 75 % control
- Agqregation Response % control ([1]; 11 mW/cm^2 UVA 60 min, no quencher): 52 % control
- aggregation response to collagen ([1]; no quencher): no response at all
- LOG10 VIRUS KILL VSV [2]: ≧6 LOG10
- inactivation of cell-free VSV [2]: completely inactivated
- LOG10 VIRUS KILL M13 [3]: 3 LOG10 and 5 LOG10
- inactivation of bacteriophage M13 [3]: at least 4 log 10
- inactivation of cell-free VSV [4]: ≥ 6.0 log10

Molecule: O=C1O[C@H]([C@@H](O)CO)C(O)=C1O [Ascorbate, ascorbate]
- Virus Kill (log10) VSV [2]: ≧6.5 log10
- Virus Kill (log10) M13 [3]: 4.7 log10
- Virus Kill (log10) EMC [5]: ≧7.7 log10

Molecule: N[C@@H](CCC(=O)N[C@@H](CS)C(=O)NCC(=O)O)C(=O)O [Glutathione, glutathione]
- Aggregation Response % Control [1, 9]: 80 % Control
- Aggregation Response % Control [1, 10]: 80 % Control
- Aggregation Response % Control [1, 11]: 75 % Control
- Aggregation Response % Control [1, 12]: 60 % Control
- Aggregation Response % Control [1, 13]: 55 % Control
- Aggregation Response % Control [1, 14]: 40 % Control
- Aggregation Response % Control [1, 15]: 25 % Control
- Virus Inactivation (log10) Cell-Free VSV [2]: ≧6.0 log10
- Virus Kill (log10) M13 [3]: 4.4 log10

Molecule: OCC(O)CO [Glycerol, glycerol]
- Aggregation Response % Control [1, 9]: 90 % Control
- Aggregation Response % Control [1, 10]: 95 % Control
- Aggregation Response % Control [1, 11]: 80 % Control
- Aggregation Response % Control [1, 16]: 85 % Control
- Aggregation Response % Control [1, 12]: 50 % Control
- Aggregation Response % Control [1, 13]: 55 % Control
- Aggregation Response % Control [1, 17]: 50 % Control
- Aggregation Response % Control [1, 18]: 50 % Control
- Aggregation Response % Control [1, 15]: 35 % Control
- Virus Kill (log10) M13 [3]: 6.6 log10

Molecule: N[C@@H](Cc1c[nH]cn1)C(=O)O [Histidine, histidine]
- Agqregation Response % control ([1]; 11 mW/cm^2 UVA 30 min, quencher 5 mM): 75 % control
- Agqregation Response % control [1, 19]: 65 % control
- Agqregation Response % control ([1]; 11 mW/cm^2 UVA 60 min, quencher 5 mM): 55 % control
- Agqregation Response % control ([1]; 11 mW/cm^2 UVA 90 min, quencher 5 mM): 35 % control
- Virus Kill (log10) Cell-free VSV [2]: 5.1 log10 and 4.8 log10
- Virus Kill (log10) M13 [3]: 4.0 log10

Molecule: CN(C)c1ccc2nc3ccc(=[N+](C)C)cc-3sc2c1 [M8, methylene blue]
- LOG10 VIRUS KILL VSV [2]: ≧5 LOG10

Molecule: OC[C@@H](O)[C@@H](O)[C@H](O)[C@H](O)CO [Mannitol, mannitol]
- Aggregation Response % Control [1, 9]: 95 % Control
- Aggregation Response % Control [1, 10]: 95 % Control
- Aggregation Response % Control [1, 11]: 91 % Control
- Aggregation Response % Control [1, 16]: 85 % Control
- Aggregation Response % Control [1, 12]: 60 % Control
- Aggregation Response % Control [1, 13]: 58 % Control
- Aggregation Response % Control [1, 17]: 56 % Control
- Aggregation Response % Control [1, 18]: 55 % Control
- Aggregation Response % Control [1, 14]: 32 % Control
- Aggregation Response % Control ([1]; 7.5 mW/cm^2 UVA 90 min, quencher 50 mM): 30 % Control
- aggregation response to collagen ([1]; 2 mM mannitol): no response at all
- Virus Kill (log10) M13 [3]: 6.6 log10

Molecule: N[C@@H](Cc1c[nH]c2ccccc12)C(=O)O [Tryptophan, tryptophan]
- Agqregation Response % control [1, 20]: 70 % control
- Agqregation Response % control ([1]; 11 mW/cm^2 UVA 30 min, quencher 4 mM): 60 % control
- Agqregation Response % control [1, 19]: 45 % control
- Agqregation Response % control [1, 21]: 50 % control
- Agqregation Response % control ([1]; 11 mW/cm^2 UVA 60 min, quencher 4 mM): 45 % control
- Agqregation Response % control ([1]; 11 mW/cm^2 UVA 60 min, quencher 10 mM): 20 % control
- Agqregation Response % control [1, 22]: 30 % control
- Agqregation Response % control ([1]; 11 mW/cm^2 UVA 90 min, quencher 4 mM): 20 % control
- Agqregation Response % control ([1]; 11 mW/cm^2 UVA 90 min, quencher 10 mM): 0 % control

Molecule: O=c1cc(-c2ccccc2)oc2cc(O)cc(O)c12 [chrysin]
- % Untreated Control - Extent of Aggregation Response to Collagen, treated [1, 23]: 90 % Untreated Control
- % Untreated Control - Rate of Aggregation Response to Collagen, treated [1, 23]: 85 % Untreated Control
- % Untreated Control - Extent of Aggregation Response to Collagen, untreated ([1]; overnight storage): 100/100 % Untreated Control
- % Untreated Control - Rate of Aggregation Response to Collagen, untreated ([1]; overnight storage): 100/100 % Untreated Control

Molecule: COc1ccc([C@@H]2CC(=O)c3c(O)cc(O[C@@H]4O[C@H](CO[C@@H]5O[C@@H](C)[C@H](O)[C@@H](O)[C@H]5O)[C@@H](O)[C@H](O)[C@H]4O)cc3O2)cc1O [hesperidin]
- % Untreated Control - Extent of Aggregation Response to Collagen, treated [1, 23]: 100 % Untreated Control
- % Untreated Control - Rate of Aggregation Response to Collagen, treated [1, 23]: 86 % Untreated Control
- % Untreated Control - Extent of Aggregation Response to Collagen, untreated ([1]; overnight storage): 98 % Untreated Control
- % Untreated Control - Rate of Aggregation Response to Collagen, untreated ([1]; overnight storage): 90 % Untreated Control

Molecule: C[C@@H]1O[C@@H](O[C@H]2[C@H](Oc3cc(O)c4c(c3)O[C@H](c3ccc(O)cc3)CC4=O)O[C@H](CO)[C@@H](O)[C@@H]2O)[C@H](O)[C@H](O)[C@H]1O [naringin]
- % Untreated Control - Extent of Aggregation Response to Collagen, treated [1, 23]: 78 % Untreated Control
- % Untreated Control - Rate of Aggregation Response to Collagen, treated [1, 23]: 61 % Untreated Control
- % Untreated Control - Extent of Aggregation Response to Collagen, untreated ([1]; overnight storage): 90 % Untreated Control
- % Untreated Control - Rate of Aggregation Response to Collagen, untreated ([1]; overnight storage): 83 % Untreated Control

Molecule: O=c1c(O)c(-c2ccc(O)c(O)c2)oc2cc(O)cc(O)c12 [quercetin]
- % Untreated Control - Extent of Aggregation Response to Collagen, treated [1, 23]: 98/98 % Untreated Control
- % Untreated Control - Rate of Aggregation Response to Collagen, treated [1, 23]: 98/98 % Untreated Control
- % Untreated Control - Extent of Aggregation Response to Collagen, untreated ([1]; overnight storage): 100/100 % Untreated Control
- % Untreated Control - Rate of Aggregation Response to Collagen, untreated ([1]; overnight storage): 100/100 % Untreated Control
- Virus Kill (log10) VSV [2]: ≧6.5 log10
- inactivation of cell-associated VSV [6]: ~6 log10
- Virus Kill (log10) M13 [3]: 5.0 log10
- Virus Kill (log10) EMC [5]: ≧7.7 log10

Molecule: Cc1c(C)c2c(c(C)c1OP(=O)(O)O)CC[C@@](C)(CCC[C@H](C)CCC[C@H](C)CCCC(C)C)O2 [α-tocopherol phosphate]
- Agqregation Response % control ([1]; 11 mW/cm^2 UVA 30 min, quencher 0.5 mM): 76 % control
- Agqregation Response % control ([1]; 11 mW/cm^2 UVA 30 min, quencher 1.0 mM): 75 % control
- Agqregation Response % control [1, 20]: 70 % control
- Agqregation Response % control ([1]; 11 mW/cm^2 UVA 60 min, quencher 0.5 mM): 55 % control
- Agqregation Response % control ([1]; 11 mW/cm^2 UVA 60 min, quencher 1.0 mM): 60 % control
- Agqregation Response % control [1, 21]: 50 % control
- Agqregation Response % control ([1]; 11 mW/cm^2 UVA 90 min, quencher 0.5 mM): 35 % control
- Agqregation Response % control ([1]; 11 mW/cm^2 UVA 90 min, quencher 1.0 mM): 40 % control
- Agqregation Response % control [1, 22]: 30 % control

Molecule: Superoxide Dismutase
- Aggregation Response % Control ([1]; 7.5 mW/cm^2 UVA 30 min, quencher 20 μg/ml): 85 % Control
- Aggregation Response % Control ([1]; 7.5 mW/cm^2 UVA 30 min, quencher 100 μg/ml): 75 % Control
- Aggregation Response % Control ([1]; 7.5 mW/cm^2 UVA 60 min, quencher 20 μg/ml): 50 % Control
- Aggregation Response % Control ([1]; 7.5 mW/cm^2 UVA 60 min, quencher 100 μg/ml): 45 % Control
- Aggregation Response % Control ([1]; 7.5 mW/cm^2 UVA 90 min, quencher 20 μg/ml): 30 % Control
- Virus Inactivation (log10) Cell-Free VSV [2]: ≧6.0 log10
- Virus Kill (log10) M13 [3]: 3.9 log10

Molecule: aluminum phthalocyanine tetrasulfonate [AlPcS4]
- plasma K+ ([7]; with γ-irradiation 25 Gy, no rutin): 75 mM
- plasma K+ ([7]; without γ-irradiation): 60 mM

Molecule: sodium carpryl N-acetyl tryptophan [SCNAT]
- Virus Kill (log10) M13 [3]: 1.6 log10
